Laboratory results published in patent US9603930B2, “Liquid bendamustine formulation” (Navinta, LLC, priority 2014, dated 2017).

How the values were obtained:
[1] = polyethylene glycol alone; from U.S. Pat. No. 8,609,707; cited from earlier work
[2] = Solubility of bendamustine in solvents
[3] = 2 months of storage at 25° C.; cited from earlier work

| Structure (SMILES) | solubility in PEG alone [1] | solubility in glycerin [2] | stability of the solid on storage [3] |
| --- | --- | --- | --- |
| Cn1c(CCCC(=O)O)nc2cc(N(CCCl)CCCl)ccc21 [Bendamustine, 4-[5-[bis(2-chloroethyl)amino]-1-methylbenzimidazol-2-yl]butanoic acid] | poorly soluble | very high solubility | – |
| Cl.Cn1c(CCCC(=O)O)nc2cc(N(CCCl)CCCl)ccc21 | – | – | degrades |
